{"source": "patent US20060130172A1", "about": "“Gene encoding resistance to acetolactate synthase-inhibiting herbicides” (priority 2003, published 2006)", "key": {"[1]": {"tested_on": "R11-AMACH smooth pigweed", "experiment": "Greenhouse screen of ALS-inhibiting herbicides on resistant smooth pigweed biotype", "type": "in vivo, Amaranthus hybridus L.", "conditions": "3 WAT; for Biomass Reduction: compared to untreated plant biomass; for Biomass: plant dry weight; for Visual Control: scale 0-99%", "from_the_text": "(§1) Seeds from a smooth pigweed (Aniaranthus hybridus L.) population (R11-AMACH) were collected from a field in southeastern Pennsylvania where extreme ALS-inhibitor herbicide selection pressure was imposed over a several year period within continuous soybean production. R11-AMACH was selected naturally with ALS-inhibiting herbicides representative of the SU, IMI, and TP herbicide chemistries.\n(§2) To establish levels and patterns of ALS resistance, R11-AMACH and an ALS susceptible smooth pigweed biotype (S-AMACH) were screened in the greenhouse with various rates of the ALS-inhibiting herbicides, chlorimuron (SU), thifensulfuron (SU), imazethapyr (IMI), pyrithiobac (POB), and cloransulam-methyl (TP). Rates evaluated were based on a log10 scale that included 0, 1/100×, 1/10×, 1×, 10×, and 100×, where 1× corresponds to the normal use rate in the field. R11-AMACH responded differently to the rate increase as compared to S-AMACH. […] Visual control, height, biomass, and biomass reduction are presented separately for chlorimuron (Table 3), thifensulfuron (Table 4), imazethapyr (Table 5), pyrithiobac (Table 6), and cloransulam (Table 7). Evaluations and measurements were recorded 3 weeks after herbicide treatment (WAT). Visual control was based on a scale of 0-99%, where 0% represents no control and 99% represents complete control. Biomass represents plant dry weights recorded several days after plants were harvested. Biomass reduction was calculated based on the amount of biomass reduced by herbicide treatment compared to the untreated plant biomass."}, "[2]": {"tested_on": "S-AMACH smooth pigweed", "experiment": "Greenhouse screen of ALS-inhibiting herbicides on susceptible smooth pigweed biotype", "type": "in vivo, Amaranthus hybridus L.", "conditions": "3 WAT; for Biomass Reduction: compared to untreated plant biomass; for Biomass: plant dry weight; for Visual Control: scale 0-99%", "from_the_text": "as §1, §2"}, "[3]": {"conditions": "rate 1/100× (1× = normal use rate in the field)"}}}
{"smiles": "COc1cc(OC)nc(Sc2cccc(Cl)c2C(=O)O)n1", "note": "[pyrithiobac, 2-chloro-6-[(4,6-dimethoxy-2-pyrimidinyl)thio]benzoic acid]", "values": [{"measurement": "Height", "setting": "[1]; rate 1/10×", "result": 22.0, "unit": "cm"}, {"measurement": "Biomass Reduction", "setting": "[1]; rate 1/10×", "result": 36.3, "unit": "%"}, {"measurement": "Biomass", "setting": "[1]; rate 1/10×", "result": 2.42, "unit": "g"}, {"measurement": "Visual Control", "setting": "[1]; rate 1/10×", "result": 21, "unit": "%"}, {"measurement": "Visual Control", "setting": "[1]; [3]", "result": 7, "unit": "%"}, {"measurement": "Height", "setting": "[1]; rate 1/100×", "result": 26.5, "unit": "cm"}, {"measurement": "Biomass Reduction", "setting": "[1]; rate 1/100×", "result": 26.8, "unit": "%"}, {"measurement": "Biomass", "setting": "[1]; rate 1/100×", "result": 2.78, "unit": "g"}, {"measurement": "Visual Control", "setting": "[1]; rate 1× (normal use rate)", "result": 30, "unit": "%"}, {"measurement": "Height", "setting": "[1]; rate 1×", "result": 17.8, "unit": "cm"}, {"measurement": "Biomass Reduction", "setting": "[1]; rate 1×", "result": 37.4, "unit": "%"}, {"measurement": "Biomass", "setting": "[1]; rate 1×", "result": 2.38, "unit": "g"}, {"measurement": "Height", "setting": "[1]; rate 10×", "result": 11.0, "unit": "cm"}, {"measurement": "Biomass Reduction", "setting": "[1]; rate 10×", "result": 71.8, "unit": "%"}, {"measurement": "Biomass", "setting": "[1]; rate 10×", "result": 1.07, "unit": "g"}, {"measurement": "Visual Control", "setting": "[1]; rate 10×", "result": 48, "unit": "%"}, {"measurement": "Height", "setting": "[1]; rate 100×", "result": 2.5, "unit": "cm"}, {"measurement": "Biomass Reduction", "setting": "[1]; rate 100×", "result": 98.2, "unit": "%"}, {"measurement": "Biomass", "setting": "[1]; rate 100×", "result": 0.07, "unit": "g"}, {"measurement": "Visual Control", "setting": "[1]; rate 100×", "result": 97, "unit": "%"}, {"measurement": "Height", "setting": "[2]; rate 1/10×", "result": 8.8, "unit": "cm"}, {"measurement": "Biomass Reduction", "setting": "[2]; rate 1/10×", "result": 89.2, "unit": "%"}, {"measurement": "Biomass", "setting": "[2]; rate 1/10×", "result": 0.37, "unit": "g"}, {"measurement": "Visual Control", "setting": "[2]; rate 1/10×", "result": 59, "unit": "%"}, {"measurement": "Height", "setting": "[2]; rate 1/100×", "result": 21.8, "unit": "cm"}, {"measurement": "Biomass Reduction", "setting": "[2]; rate 1/100×", "result": 49.6, "unit": "%"}, {"measurement": "Biomass", "setting": "[2]; rate 1/100×", "result": 1.73, "unit": "g"}, {"measurement": "Visual Control", "setting": "[2]; rate 1/100×", "result": 16, "unit": "%"}, {"measurement": "Visual Control", "setting": "[2]; rate 1× (normal use rate)", "result": 99, "unit": "%"}, {"measurement": "Height", "setting": "[2]; rate 1×", "result": 2.0, "unit": "cm"}, {"measurement": "Biomass Reduction", "setting": "[2]; rate 1×", "result": 98.0, "unit": "%"}, {"measurement": "Biomass", "setting": "[2]; rate 1×", "result": 0.07, "unit": "g"}, {"measurement": "Height", "setting": "[2]; rate 10×", "result": 1.8, "unit": "cm"}, {"measurement": "Biomass Reduction", "setting": "[2]; rate 10×", "result": 96.5, "unit": "%"}, {"measurement": "Biomass", "setting": "[2]; rate 10×", "result": 0.12, "unit": "g"}, {"measurement": "Visual Control", "setting": "[2]; rate 10×", "result": 99, "unit": "%"}, {"measurement": "Height", "setting": "[2]; rate 100×", "result": 0.5, "unit": "cm"}, {"measurement": "Biomass Reduction", "setting": "[2]; rate 100×", "result": 98.8, "unit": "%"}, {"measurement": "Biomass", "setting": "[2]; rate 100×", "result": 0.04, "unit": "g"}, {"measurement": "Visual Control", "setting": "[2]; rate 100×", "result": 99, "unit": "%"}]}
{"smiles": "COc1nc(C)nc(NC(=O)NS(=O)(=O)c2ccsc2C(=O)O)n1", "note": "[thifensulfuron, 3-[[[[(4-methoxy-6-methyl-1,3,5-triazin-2-yl)amino]carbonyl]-amino]sulfonyl]-2-thiophenecarboxylic acid]", "values": [{"measurement": "Height", "setting": "[1]; rate 1/10×", "result": 32.5, "unit": "cm"}, {"measurement": "Biomass Reduction", "setting": "[1]; rate 1/10×", "result": "−17.1", "unit": "%"}, {"measurement": "Biomass", "setting": "[1]; rate 1/10×", "result": 4.45, "unit": "g"}, {"measurement": "Visual Control", "setting": "[1]; rate 1/10×", "result": 9, "unit": "%"}, {"measurement": "Visual Control", "setting": "[1]; [3]", "result": 4, "unit": "%"}, {"measurement": "Height", "setting": "[1]; rate 1/100×", "result": 36.0, "unit": "cm"}, {"measurement": "Biomass Reduction", "setting": "[1]; rate 1/100×", "result": "−10.8", "unit": "%"}, {"measurement": "Biomass", "setting": "[1]; rate 1/100×", "result": 4.21, "unit": "g"}, {"measurement": "Visual Control", "setting": "[1]; rate 1× (normal use rate)", "result": 22, "unit": "%"}, {"measurement": "Height", "setting": "[1]; rate 1×", "result": 23.0, "unit": "cm"}, {"measurement": "Biomass Reduction", "setting": "[1]; rate 1×", "result": 8.4, "unit": "%"}, {"measurement": "Biomass", "setting": "[1]; rate 1×", "result": 3.48, "unit": "g"}, {"measurement": "Height", "setting": "[1]; rate 10×", "result": 15.8, "unit": "cm"}, {"measurement": "Biomass Reduction", "setting": "[1]; rate 10×", "result": 40.8, "unit": "%"}, {"measurement": "Biomass", "setting": "[1]; rate 10×", "result": 2.25, "unit": "g"}, {"measurement": "Visual Control", "setting": "[1]; rate 10×", "result": 38, "unit": "%"}, {"measurement": "Height", "setting": "[1]; rate 100×", "result": 6.8, "unit": "cm"}, {"measurement": "Biomass Reduction", "setting": "[1]; rate 100×", "result": 84.7, "unit": "%"}, {"measurement": "Biomass", "setting": "[1]; rate 100×", "result": 0.58, "unit": "g"}, {"measurement": "Visual Control", "setting": "[1]; rate 100×", "result": 64, "unit": "%"}, {"measurement": "Height", "setting": "[2]; rate 1/10×", "result": 11.0, "unit": "cm"}, {"measurement": "Biomass Reduction", "setting": "[2]; rate 1/10×", "result": 75.2, "unit": "%"}, {"measurement": "Biomass", "setting": "[2]; rate 1/10×", "result": 0.85, "unit": "g"}, {"measurement": "Visual Control", "setting": "[2]; rate 1/10×", "result": 47, "unit": "%"}, {"measurement": "Height", "setting": "[2]; rate 1/100×", "result": 25.0, "unit": "cm"}, {"measurement": "Biomass Reduction", "setting": "[2]; rate 1/100×", "result": 48.7, "unit": "%"}, {"measurement": "Biomass", "setting": "[2]; rate 1/100×", "result": 1.76, "unit": "g"}, {"measurement": "Visual Control", "setting": "[2]; rate 1/100×", "result": 22, "unit": "%"}, {"measurement": "Visual Control", "setting": "[2]; rate 1× (normal use rate)", "result": 98, "unit": "%"}, {"measurement": "Height", "setting": "[2]; rate 1×", "result": 2.0, "unit": "cm"}, {"measurement": "Biomass Reduction", "setting": "[2]; rate 1×", "result": 98.0, "unit": "%"}, {"measurement": "Biomass", "setting": "[2]; rate 1×", "result": 0.07, "unit": "g"}, {"measurement": "Height", "setting": "[2]; rate 10×", "result": 0.3, "unit": "cm"}, {"measurement": "Biomass Reduction", "setting": "[2]; rate 10×", "result": 98.8, "unit": "%"}, {"measurement": "Biomass", "setting": "[2]; rate 10×", "result": 0.04, "unit": "g"}, {"measurement": "Visual Control", "setting": "[2]; rate 10×", "result": 99, "unit": "%"}, {"measurement": "Height", "setting": "[2]; rate 100×", "result": 0.5, "unit": "cm"}, {"measurement": "Biomass Reduction", "setting": "[2]; rate 100×", "result": 99.1, "unit": "%"}, {"measurement": "Biomass", "setting": "[2]; rate 100×", "result": 0.03, "unit": "g"}, {"measurement": "Visual Control", "setting": "[2]; rate 100×", "result": 99, "unit": "%"}]}
